tested on: OPM-2 human multiple myeloma cell line; assay: Cell Viability Assay (OPM-2 10 FBS), CellTiter-Glo; type: cell-based; conditions: Homo sapiens, OPM-2, 16 h, read-out: OPM-2 10% FBS IC50 IP (μM), OPM-2 cells, 10% FBS, 16 h, CellTiter-Glo
Method: Cell Viability Assay (OPM-2 10 FBS)
The human multiple myeloma cell line, OPM-2, was cultured in complete growth medium containing RPMI 1640 and 10% fetal bovine serum (FBS). Cells were seeded into 384-well plates at 3000 cells/well density in complete growth medium containing 10% FBS, and incubated for 16 h with serially diluted test compounds in a 37° C. incubator with 5% CO2. Cell viability was tested using CellTiter-Glo® assay (Promega, Madison, Wis.) according to the manufacturer recommendations. Luminescence was determined using an EnVision® Multilabel plate reader 25 min after the addition of detection reagent. IC50 values were then calculated with Xlfit using a logistical 4-parameter fit model in GraphPad Prism (GraphPad Software, San Diego, Calif.) or in Genedata Screener® (Genedata, Basel, Switzerland).

Row | Structure (SMILES) | IC50 [µM]
1 | CO[C@@]1(CN2CCN3CCC(F)(F)CC3C2)/C=C/C[C@H](C)[C@@H](C)S(=O)(=O)NC(=O)c2ccc3c(c2)N(C[C@@H]2CC[C@H]21)C[C@@]1(CCCc2cc(Cl)ccc21)CO3 (mixture of isomers) [Example 273] | 0.501
2 | CO[C@]1(CN2CC[C@@H]3CCCC[C@H]3C2)/C=C/C[C@H](C)[C@@H](C)S(=O)(=O)NC(=O)c2ccc3c(c2)N(C[C@@H]2CC[C@H]21)C[C@@]1(CCCc2cc(Cl)ccc21)CO3 (single isomer, unassigned) [Example 90] | 8.98
3 | C[C@@H]1[C@@H](C)C/C=C/[C@]2(CN3CCN(C)C[C@@H]3CO2)[C@@H]2CC[C@H]2CN2C[C@@]3(CCCc4cc(Cl)ccc43)COc3ccc(cc32)C(=O)NS1(=O)=O (single isomer, unassigned) [Example 132] | 0.263
4 | CO[C@]1(CN2CCN3CCN(S(C)(=O)=O)C[C@@H]3C2)/C=C/C[C@H](C)[C@@H](C)S(=O)(=O)NC(=O)c2ccc3c(c2)N(C[C@@H]2CC[C@H]21)C[C@@]1(CCCc2cc(Cl)ccc21)CO3 (single isomer, unassigned) [Example 237] | 0.064
5 | CO[C@@]1(CN2CCN([C@@H]3CCOC3)CC2)/C=C/C[C@H](C)[C@@H](C)S(=O)(=O)NC(=O)c2ccc3c(c2)N(C[C@@H]2CC[C@H]21)C[C@@]1(CCCc2cc(Cl)ccc21)CO3 (single isomer, unassigned) [Example 286] | 0.05
6 | CO[C@@]1(CN2CCN3CCC(F)(F)C[C@@H]3C2)/C=C/C[C@H](C)[C@@H](C)S(=O)(=O)NC(=O)c2ccc3c(c2)N(C[C@@H]2CC[C@H]21)C[C@@]1(CCCc2cc(Cl)ccc21)CO3 (single isomer, unassigned) [Example 288] | 0.652
7 | CO[C@@]1(CN2CCN3CCC(F)(F)C[C@H]3C2)/C=C/C[C@H](C)[C@@H](C)S(=O)(=O)NC(=O)c2ccc3c(c2)N(C[C@@H]2CC[C@H]21)C[C@@]1(CCCc2cc(Cl)ccc21)CO3 (single isomer, unassigned) [Example 289] | 0.131
8 | CO[C@@]1(CN2CCN3CCN(C(=O)CCS(=O)(=O)c4ccccc4)C[C@H]3C2)/C=C/C[C@H](C)[C@@H](C)S(=O)(=O)NC(=O)c2ccc3c(c2)N(C[C@@H]2CC[C@H]21)C[C@@]1(CCCc2cc(Cl)ccc21)CO3 (single isomer, unassigned) [Example 295] | 0.104
9 | CO[C@]1(CN2CCN3CCC(F)(F)C[C@H]3C2)/C=C/C[C@H](C)[C@@H](C)S(=O)(=O)NC(=O)c2ccc3c(c2)N(C[C@@H]2CC[C@H]21)C[C@@]1(CCCc2cc(Cl)ccc21)CO3 (single isomer, unassigned) [Example 299] | 0.456
10 | CO[C@]1(CN2CC[C@H]3CCCC[C@@H]3C2)/C=C/C[C@H](C)[C@@H](C)S(=O)(=O)NC(=O)c2ccc3c(c2)N(C[C@@H]2CC[C@H]21)C[C@@]1(CCCc2cc(Cl)ccc21)CO3 (stereo in doubt) [Example 86] | 7.95
11 | CO[C@@]1(CN2CCN3CCN(C)C[C@@H]3C2)/C=C/C[C@H](C)[C@@H](C)S(=O)(=O)NC(=O)c2ccc3c(c2)N(C[C@@H]2CC[C@H]21)C[C@@]1(CCCc2cc(Cl)ccc21)CO3 (stereo in doubt) [Example 210] | 0.185
12 | CO[C@]1(CN2CCN3CCN(S(C)(=O)=O)C[C@@H]3C2)/C=C/C[C@H](C)[C@@H](C)S(=O)(=O)NC(=O)c2ccc3c(c2)N(C[C@@H]2CC[C@H]21)C[C@@]1(CCCc2cc(Cl)ccc21)CO3 (stereo in doubt) [Example 227] | 0.131
13 | C=CC(=O)N1CCN2CCN(C[C@]3(OC)/C=C/C[C@H](C)[C@@H](C)S(=O)(=O)NC(=O)c4ccc5c(c4)N(C[C@@H]4CC[C@H]43)C[C@@]3(CCCc4cc(Cl)ccc43)CO5)C[C@H]2C1 (stereo in doubt) [Example 234] | 0.071
14 | CO[C@]1(CN2CCN3CCC(F)(F)C[C@@H]3C2)/C=C/C[C@H](C)[C@@H](C)S(=O)(=O)NC(=O)c2ccc3c(c2)N(C[C@@H]2CC[C@H]21)C[C@@]1(CCCc2cc(Cl)ccc21)CO3 (stereo in doubt) [Example 292] | 0.399
15 | CO[C@@]1(CN2CCCN(C(C)C)CC2)/C=C/C[C@H](C)[C@@H](C)S(=O)(=O)NC(=O)c2ccc3c(c2)N(C[C@@H]2CC[C@H]21)C[C@@]1(CCCc2cc(Cl)ccc21)CO3 (stereo in doubt) [Example 331] | 0.23
16 | C[C@@H]1[C@@H](C)CCC[C@@](O)(CN2CCN3CCOC[C@@H]3C2)[C@@H]2CC[C@H]2CN2C[C@@]3(CCCc4cc(Cl)ccc43)COc3ccc(cc32)C(=O)NS1(=O)=O [Example 7, (1S,3′R,6′R,7′S,11′S,12′R)-6-chloro-7′-((9aS)-hexahydropyrazino[2,1-c][1,4]oxazin-8(1H)-ylmethyl)-7′-hydroxy-11′,12′-dimethyl-3,4-dihydro-2H,15′H-spiro[naphthalene-1,22′-[20]oxa[13]thia[1,14]diazatetracyclo[14.7.2.0˜3,6˜.0˜19,24˜]pentacosa[16,18,24]trien]-15′-one 13′,13′-dioxide] | 0.025
17 | CO[C@]1(CN2CCN(C(C)C)[C@H](C)C2)/C=C/C[C@H](C)[C@@H](C)S(=O)(=O)NC(=O)c2ccc3c(c2)N(C[C@@H]2CC[C@H]21)C[C@@]1(CCCc2cc(Cl)ccc21)CO3 [Example 8, (1S,3′R,6′R,7′R,8′E,11′S,12′R)-6-chloro-7′-methoxy-11′,12′-dimethyl-7′-(((3R)-3-methyl-4-(1-methylethyl)-1-piperazinyl)methyl)-3,4-dihydro-2H,15′H-spiro[naphthalene-1,22′-[20]oxa[13]thia[1,14]diazatetracyclo[14.7.2.0˜3,6˜.0˜19,24˜]pentacosa[8,16,18,24]tetraen]-15′-one 13′,13′-dioxide] | 0.025
18 | CO[C@]1(CN2CCN3CCCC[C@@H]3C2)/C=C/C[C@H](C)[C@@H](C)S(=O)(=O)NC(=O)c2ccc3c(c2)N(C[C@@H]2CC[C@H]21)C[C@@]1(CCCc2cc(Cl)ccc21)CO3 [Example 10, (1S,3′R,6′R,7′R,8′E,11′S,12′R)-6-chloro-7′-methoxy-11′,12′-dimethyl-7′-((9aR)-octahydro-2H-pyrido[1,2-a]pyrazin-2-ylmethyl)-3,4-dihydro-2H,15′H-spiro[naphthalene-1,22′-[20]oxa[13]thia[1,14]diazatetracyclo [14.7.2.0˜3,6˜.0˜19,24˜]pentacosa[8,16,18,24]tetraen]-15′-one 13′,13′-dioxide] | 0.075
19 | CO[C@]1(CN2CCN3CCC[C@@H]3C2)/C=C/C[C@H](C)[C@@H](C)S(=O)(=O)NC(=O)c2ccc3c(c2)N(C[C@@H]2CC[C@H]21)C[C@@]1(CCCc2cc(Cl)ccc21)CO3 [Example 83] | 0.245
20 | CCCO[C@]1(CN2CCN3CCCC[C@@H]3C2)/C=C/C[C@H](C)[C@@H](C)S(=O)(=O)NC(=O)c2ccc3c(c2)N(C[C@@H]2CC[C@H]21)C[C@@]1(CCCc2cc(Cl)ccc21)CO3 [Example 353, (1S,3′R,6′R,7′R,8′E,11′S,12′R)-6-chloro-11′,12′-dimethyl-7′-((9aR)-octahydro-2H-pyrido[1,2-a]pyrazin-2-ylmethyl)-7′-propoxy-3,4-dihydro-2H,15′H-spiro[naphthalene-1,22′-[20]oxa[13]thia[1,14]diazatetracyclo [14.7.2.0~3,6~.0~19,24~]pentacosa[8,16,18,24]tetraen]-15′-one 13′,13′-dioxide] | 0.186

same assay, conditions: read-out: OPM-2 10% FBS IC50 IP; OPM-2 cells, 10% FBS, 16 h, CellTiter-Glo

Row | Structure (SMILES) | IC50 [µM]
21 | CO[C@]1(CN2CC[C@H]3CCCC[C@@H]3C2)/C=C/C[C@H](C)[C@@H](C)S(=O)(=O)NC(=O)c2ccc3c(c2)N(C[C@@H]2CC[C@H]21)C[C@@]1(CCCc2cc(Cl)ccc21)CO3 (single isomer, unassigned) [Example 89] | 8.21
22 | CO[C@]1(CN2CCN3CCS(=O)(=O)C[C@@H]3C2)/C=C/C[C@H](C)[C@@H](C)S(=O)(=O)NC(=O)c2ccc3c(c2)N(C[C@@H]2CC[C@H]21)C[C@@]1(CCCc2cc(Cl)ccc21)CO3 (single isomer, unassigned) [Example 220] | 0.042
23 | CO[C@]1(CN2CCN3CCS(=O)(=O)C[C@@H]3C2)/C=C/C[C@H](C)[C@@H](C)S(=O)(=O)NC(=O)c2ccc3c(c2)N(C[C@@H]2CC[C@H]21)C[C@@]1(CCCc2cc(Cl)ccc21)CO3 (single isomer, unassigned) [Example 221] | 0.12
24 | CO[C@@]1(CN2CCN3CCS(=O)(=O)C[C@@H]3C2)/C=C/C[C@H](C)[C@@H](C)S(=O)(=O)NC(=O)c2ccc3c(c2)N(C[C@@H]2CC[C@H]21)C[C@@]1(CCCc2cc(Cl)ccc21)CO3 (single isomer, unassigned) [Example 231] | 0.098
25 | CO[C@@]1(CN2CCN3CCS(=O)(=O)C[C@@H]3C2)/C=C/C[C@H](C)[C@@H](C)S(=O)(=O)NC(=O)c2ccc3c(c2)N(C[C@@H]2CC[C@H]21)C[C@@]1(CCCc2cc(Cl)ccc21)CO3 (single isomer, unassigned) [Example 232] | 0.2
26 | CO[C@]1(CN2CCN3CCN(S(C)(=O)=O)C[C@@H]3C2)/C=C/C[C@H](C)[C@@H](C)S(=O)(=O)NC(=O)c2ccc3c(c2)N(C[C@@H]2CC[C@H]21)C[C@@]1(CCCc2cc(Cl)ccc21)CO3 (single isomer, unassigned) [Example 238] | 0.076
27 | CO[C@@]1(CN2CCN3CCN(C(=O)CCS(=O)(=O)c4ccccc4)C[C@@H]3C2)/C=C/C[C@H](C)[C@@H](C)S(=O)(=O)NC(=O)c2ccc3c(c2)N(C[C@@H]2CC[C@H]21)C[C@@]1(CCCc2cc(Cl)ccc21)CO3 (single isomer, unassigned) [Example 294] | 0.687
28 | CO[C@@]1(CN2CCN3CCN(C(=O)CCS(=O)(=O)c4ccccc4)C[C@@H]3C2)/C=C/C[C@H](C)[C@@H](C)S(=O)(=O)NC(=O)c2ccc3c(c2)N(C[C@@H]2CC[C@H]21)C[C@@]1(CCCc2cc(Cl)ccc21)CO3 (stereo in doubt) [Example 233] | 0.202

From US11224601B1, “Compounds that inhibits MCL-1 protein” (priority 2017, dated 2022)
